From patent publication US20130078224A1, “INDUCTION/MONITORING OF ARTERIOGENESIS USING SDF1 AND PDGFB OR INHIBITION OF PHD2” (LIFE SCIENCES RESEARCH PARTNERS VZW, priority 2010, published 2013)

Legend:
PHD2 = PHD2 expression (qPCR) in bone marrow-derived monocyte/macrophage cultures upon cytokine stimulation; assay type: cell-based, mice; details: for PHD2 transcripts: WT cultures, any of the concentrations tested (50 and 250 ng/mL)
Protocol: Quantitative PCR Analysis: In order to investigate gene expression in pMØ, quantitative RT-PCR (qRT-PCR) was performed. After preparing pMØ, the cells were cultured in normoxic condition for twelve hours, and the RNA was extracted. To analyze the gene profile of adductor, gastrocnemius, and soleus muscle, tissues were collected at baseline or 24 hours/72 hours post-ischemia and RNA was extracted. Macrophages and ECs were freshly sorted from dissected adductors as described below and RNA was extracted. Quantitative RT-PCR was perfouned with commercially available or homemade primers and probes for the studied genes. The assay ID (Applied Biosystems, Foster City, Calif.) or the sequence of primers and probes (when homemade) are listed in Table 5. RNA levels of Tie-2, SDF1 and PDGFB after inhibition of NF-κB pathway were measured by qRT-PCR on pMØ exposed for twelve hours to 500 nM 6-amino-4-(4-phenoxyphenylethylamino)quinazoline. […] After 24 hours, cells were harvested for RNA extraction and cDNA preparation.

[1] = tested on: hCASMC (Human coronary artery smooth muscle cells); assay: SMC migration (Transwell) toward PHD2+/- macrophages; assay type: cell-based; details: AMD3100 1 μg/ml, imatinib 2.5 μg/ml, alone or combined
Protocol: (§1) Cell Migration and Viability Assays: Migration and proliferation of SMCs and ECs were assessed by using 8 μm-pore Transwell peimeable plate for migration assays and 0.4 μm-pore Transwell permeable plate for proliferation assays (Corning Life Science). To determine cell migration toward the factors secreted by pMØ, pMØ were cultured in the lower chamber for twelve hours in RPMI 1% FBS or in M-199 1% FBS (migration assay), or 48 hours in DMEM-F12 1% FBS or in M-199 1% FBS (proliferation assay). For migration assays, hCASMC (Human coronary artery smooth muscle cells; from Lonza) and HUVEC (Human umbilical vein endothelial cells; from Lonza) were starved for twelve hours in their own medium at 1% FBS and, therefore, seeded in the upper chamber (5×10^3 cells in 200 μl of medium 1% FBS), with or without AMD3100 (1 μg/ml, Sigma-Aldrich, Dorset, U.K) and imatinib (2.5 μg/ml, Novartis). SMCs and HUVECs were incubated for two days or 24 hours, respectively, and migrated cells were fixed with 4% PFA, stained with 0.25% crystal violet/50% methanol and counted under the microscope. VEGF (100 ng/mL, R&D), PDGFB (100 ng/mL, R&D) or SDF 1 (100 ng/mL, R&D) were used as positive controls. […] The cell proliferative ability was then analyzed using WST-1 Cell Proliferation Assay (Roche Applied Biosciences) according to the manufacturer instructions after 24 hours of coculture with the pMØ. […]

[2] = tested on: secondary and tertiary collateral arterioles; assay: Collateral vessel formation in bone marrow transplanted mice treated with AMD3100/imatinib (gelatin bismuth angiography); assay type: in vivo; details: for increased formation of second generation collateral branches / third generation collaterals: HE→WT mice, daily AMD3100 5 mg/kg or imatinib 50 mg/kg alone; for number of collateral branch arteries: WT→WT mice, alone or in combination
Protocol: Mouse Model of Hindlimb Ischemia: To induce hind limb ischemia, unilateral or bilateral ligations of the femoral artery and vein (proximal to the popliteal artery) and the cutaneous vessels branching from the caudal femoral artery side branch were performed without damaging the nervus femoralis (Luttun et al., Nat. Med. 8:831-840, 2002). By using this procedure, collateral flow to adductor muscles is preserved via arterioles branching from the femoral artery, therefore, 50% up to 60% of perfusion is preserved by this method. Two superficial preexisting collateral arterioles connecting the femoral and saphenous arteries were used for analysis. Functional perfusion measurements of the collateral region were performed using a Lisca PIM II camera (Gambro). Gelatin bismuth-based angiography was perfottned as described (Carmeliet et al., Nat. Med. 7:575-583, 2001) and analyzed by photoangiographs (Nikon D1 digital camera). Collateral side branches were categorized as follows: second-generation collateral arterioles directly branched off from the main collateral, whereas third-generation collateral arterioles were orientated perpendicularly to the second-generation branches. The number of secondary and tertiary collateral arterioles was counted. After perfusion-fixation, the muscle tissue between the two superficial collateral arterioles (adductor) was post-fixed in 2% paraformaldehyde (PFA) and paraffin-embedded, and were morphometrically analyzed. An endurance treadmill-running test was perfatmed at 12, 24, 48, and 72 hours after bilateral femoral artery ligation.
(§2) Bone Marrow (BM) Transplantation and Hematological Analysis: Balb/c WT and PHD2^+/− recipient mice were irradiated with 7.5 Gy. Subsequently, 5×10^6 bone marrow cells from green fluorescent protein^+ (GFP^+) WT or GFP^+ PHD2^+/− mice were injected intravenously via the tail vein. After one week, saline or AMD3100 (5 mg/kg) was administered intravenously and saline or imatinib ([…]) was administered by oral gavage for four weeks. Femoral artery ligation, treadmill running test and bismuth angiography were performed at six weeks after bone marrow reconstitution. Red and white blood cell count was determined using a hemocytometer on peripheral blood collected in heparin with capillary pipettes by retro-orbital bleeding. To assess the effect of acute deletion of macrophage-borne PHD2 on arteriogenesis, PHD2^Rosa26CreERT;lox/wt bone marrows were transplanted into lethally irradiated WT recipient mice. After five weeks, transplanted mice were injected i.p. with tamoxifen (1 mg/mouse; Sigma) or vehicle for five days. TEM quantification and femoral artery ligation were performed ten days after tamoxifen treatment as explained above. The bone marrow of PHD2^WT;Tie2:GFP or PHD2^HE;Tie2:GFP mice was transplanted in lethally irradiated WT mice. After five weeks, mice were injected systemically (5×10^11 vp) and locally (5×10^9 vp in two points of the adductor) with an AAV9 encoding the mouse extracellular domain of Tie2 fused to a flag tag (AAV9:sTie2). AAV9 encoding the human serum albumin was used as control. One week after injection of the viral vector, mice were subjected to femoral artery ligation. Blood and adductor samples were harvested at baseline and 72 hours post-ischemia and used to sort CD115^+GFP^+ circulating monocytes and F4/80^+GFP^+ macrophages.

[3] = tested on: RAOSMC (Rat Aortic Smooth Muscle Cells); assay: SMC growth assay (WST-1) in coculture with PHD2+/- macrophages; assay type: cell-based; details: AMD3100, imatinib, alone or combined
Protocol: as §1

[4] = tested on: collateral branches, circulating TEMs; assay: Acute PHD2 deletion by tamoxifen in HERosa26CreERT→WT mice: TEMs, collaterals, ischemic damage; assay type: in vivo
Protocol: as §2

NF-κB = assay: NF-κB-responsive firefly luciferase reporter assay in bone marrow-derived macrophages; assay type: cell-based, mice
Protocol: (§3) Transduction and Transfection of Bone Marrow-Derived Macrophages and Lung Endothelial Cells: To express an inducible NF-κB responsive firefly luciferase reporter, commercially available lentiviral vector particles (LV) were used (Cignal Lenti NF-κB Reporter; SABiosciences). 2.5×10^5 bone marrow-derived macrophages and 10^5 primary lung endothelial cells (isolated as previously described (Mazzone et al., 2009, see above)) were seeded in a 24-well plate in DMEM 10% FBS or M199 20% FBS for eight hours. Cells were transduced with 10^8 TU/ml. Eight hours after transduction, the medium wash was replaced. After 48 hours, cells were stimulated with TNFα (20 ng/mL) for eight hours and the same amount of protein extract was read in a luminometer. For PHD3 silencing, siRNA oligonucleotides were designed using the Invitrogen online siRNA design tool (world wide web at maidesigner.invitrogen.com). The following sequences (sense strands) and target positions were used: PHD3 siRNA: 5′-[…]-3′ (SEQ ID NO:1); scramble siRNA:5′-[…]-3′ (SEQ ID NO:2). In brief, one day after the transduction of macrophages with LV, cells were transfected using Lipofectamine 2000 (Invitrogen) according to the manufacturer's instructions. Preparation of the oligonucleotide-Lipofectamine 2000 complexes was done as followed: 25 pmol siRNA oligonucleotide (stock: 20 μM) was diluted in 50 μl Opti-MEM I reduced serum medium. Lipofectamine 2000 (1.5 μl) was diluted in 50 μl Opti-MEM I reduced serum medium and incubated for five minutes at room temperature. siRNA oligonucleotides were gently mixed with Lipofectamine 2000 and allowed to incubate at room temperature for twenty minutes to form complexes. Just before transfection, the cell culture medium was removed and cells were rinsed twice with serum-free Opti-MEM I medium. The Lipofectamine 2000-siRNA oligonucleotide complexes were added to each well in 400 μl of serum-free Opti-MEM medium for five hours. Afterwards, cells were incubated in complete medium for 48 hours at 37° C. in a CO2 incubator and assayed for gene knockdown (qRT-PCR) and luciferase activity. To assess if the increased NFkB activity observed in PHD2^+/− macrophages was dependent on the hydroxylase activity of PHD2, 48 hours before transduction, 4×10^6 bone marrow-derived macrophages were resuspended in 240 μl of Opti-MEM and were electroporated (250 V, 950 uF, ∝ Ω) with 7 μg of plasmids expressing a wild-type PHD2 (PHD2^wt) or a PHD2 containing a mutation at the catalytic site (PHD2^H313A).

PHD3 = PHD3 gene knockdown (qRT-PCR) in macrophages; assay type: cell-based, mice
Protocol: as §3, with “To assess if the increased NFkB activity observed in PHD2^+/− macrophages was dependent on the hydroxylase activity of PHD2, 48 hours before transduction, 4×10^6 bone marrow-derived macrophages were resuspended in 240 μl of Opti-MEM and were electroporated (250 V, 950 uF, ∝ Ω) with 7 μg of plasmids expressing a wild-type PHD2 (PHD2^wt) or a PHD2 containing a mutation at the catalytic site (PHD2^H313A).” left out

[5] = tamoxifen 1 mg/mouse for five days

MCP1: monocyte chemotactic protein-1, ischemia-induced cytokine
PHD2 transcripts (PHD2): did not affect

SDF1: Stromal cell-derived factor 1, alpha chemokine
PHD2 transcripts (PHD2): did not affect

c1cc(CN2CCCNCCNCCCNCC2)ccc1CN1CCCNCCNCCCNCC1 [AMD3100]
migration of SMCs toward PHD2+/- macrophages [1]: not effective | increased formation of second generation collateral branches [2]: only partially prevented | third generation collaterals [2]: affected | number of collateral branch arteries [2]: not affected | increased SMC growth by PHD2+/- macrophages [3]: abrogated

VEGF
PHD2 transcripts (PHD2): did not affect

Cc1ccc(NC(=O)c2ccc(CN3CCN(C)CC3)cc2)cc1Nc1nccc(-c2cccnc2)n1 [imatinib]
migration of SMCs toward PHD2+/- macrophages [1]: not effective | increased formation of second generation collateral branches [2]: only partially prevented | third generation collaterals [2]: affected | number of collateral branch arteries [2]: not affected | increased SMC growth by PHD2+/- macrophages [3]: abrogated

CC/C(=C(\c1ccccc1)c1ccc(OCCN(C)C)cc1)c1ccccc1 [tamoxifen]
ischemic damage ([4]; 72 hours after femoral artery ligation): greatly reduced | circulating TEMs ([4]; 14 days after tamoxifen 1 mg/mouse for five days, vs vehicle): almost three-fold increased | secondary collateral branches, abundance vs vehicle [4, 5]: 1.6 times | tertiary collateral branches, abundance vs vehicle [4, 5]: 2.3 times

5′-GCCGGCUGGGCAAAUACUAUGUCA-3′ (SEQ ID NO:1) [PHD3 siRNA]
induction of NF-κB activity vs scramble control (NF-κB; PHD2LysCre;lox/lox macrophages): 70% | induction of NF-κB activity vs scramble control (NF-κB; PHD2LysCre;lox/wt macrophages): 14% | induction of NF-κB activity vs scramble control (NF-κB; PHD2LysCre;wt/wt macrophages): 22% | knockdown of PHD3 vs scramble control (PHD3; PHD2LysCre;lox/lox macrophages): 37±0.01% | knockdown of PHD3 vs scramble control (PHD3; PHD2LysCre;lox/wt macrophages): 60±0.04% | knockdown of PHD3 vs scramble control (PHD3; PHD2LysCre;wt/wt macrophages): 63±0.03%

B1: PlGF: ischemia-induced cytokine (protein, UniProt P49763 19-221, looked up)
Placenta growth factor: LPAVPPQQWALSAGNGSSEVEVVPFQEVWGRSYCRALERLVDVVSEYPSEVEHMFSPSCVSLLRCTGCCGDENLHCVPVETANVTMQLLKIRSGDRPSYVELTFSQHVRCECRHSPGRQSPDMPGDFRADAPSFLPPRRSLPMLFRMEWGCALTGSQSAVWPSSPVPEEIPRMHPGRNGKKQQRKPLREKMKPERCGDAVPRR
PHD2 transcripts (PHD2): did not affect

B2: PDGFB: platelet-derived growth factor beta protein (protein, UniProt P01127 82-190, looked up)
Platelet-derived growth …: SLGSLTIAEPAMIAECKTRTEVFEISRRLIDRTNANFLVWPPCVEVQRCSGCCNNRNVQCRPTQVQLRPVQVRKIEIVRKKPIFKKATVTLEDHLACKCETVAAARPVT
PHD2 transcripts (PHD2): did not affect

B3: angiopoietin-2: Tie2 ligand cytokine (Prospec) (protein, UniProt O15123 19-496, looked up)
Angiopoietin-2: YNNFRKSMDSIGKKQYQVQHGSCSYTFLLPEMDNCRSSSSPYVSNAVQRDAPLEYDDSVQRLQVLENIMENNTQWLMKLENYIQDNMKKEMVEIQQNAVQNQTAVMIEIGTNLLNQTAEQTRKLTDVEAQVLNQTTRLELQLLEHSLSTNKLEKQILDQTSEINKLQDKNSFLEKKVLAMEDKHIIQLQSIKEEKDQLQVLVSKQNSIIEELEKKIVTATVNNSVLQKQQHDLMETVNNLLTMMSTSNSAKDPTVAKEEQISFRDCAEVFKSGHTTNGIYTLTFPNSTEEIKAYCDMEAGGGGWTIIQRREDGSVDFQRTWKEYKVGFGNPSGEYWLGNEFVSQLTNQQRYVLKIHLKDWEGNEAYSLYEHFYLSSEELNYRIHLKGLTGTAGKISSISQPGNDFSTKDGDNDKCICKCSQMLTGGWWFDACGPSNLNGMYYPQRQNTNKFNGIKWYYWKGSGYSLKATTMMIRPADF
reduction of PHD2 levels (PHD2; WT monocytes/macrophages, only at 50 ng/ml): 15%
